Reference: PubChem BioAssay AID492955 (The Scripps Research Institute Molecular Screening Center, 2010)
The source made the active and inactive calls.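 The calls were made as follows: active = at 10 µM dose, any replicate showing 50% or greater reduction of parasite growth in red cells; inactive = the rest.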

System: P. falciparum 3D7 in RBCs, 3H-hypoxanthine uptake, 48 h
Test: single-dose blood-stage antimalarial activity – cell-based, radiolabel, RBCs, powder samples, M17LAP inhibitor project, late-stage follow-up (AID 492955)
Settings: at 10 µM; active compounds read high

| SMILES | inhibition |
| --- | --- |
| COc1ccc(C(C)(C)C)cc1NC(=O)[C@H]1CC=CC[C@H]1C(=O)O | 0% (inactive) |
| O=C(CSc1nc(O)cc(=O)n1-c1ccccc1)Nc1ccc2c3c(cccc13)CC2 | 3% (inactive) |
| S=c1nc(-c2ccccc2Br)[nH][nH]1 | 0% (inactive) |
| CCOc1ccc(NC(=O)Nc2ccc3nccnc3c2)cc1 | 16% (inactive) |
| CC(C)c1ccc(NC(=O)[C@H]2CCCC[C@H]2C(=O)O)cc1 | 5.67% (inactive) |
| O=C(O)Cc1ccc(NC(=O)Nc2ccc(Br)cc2)cc1 | 1.67% (inactive) |
| O=C(Nc1cccc(Cl)c1)[C@H]1CC=CC[C@H]1C(=O)O | 0.333% (inactive) |
| Cn1c(SCC(=O)Nc2cccc3ccccc23)nc(O)cc1=O | 2.5% (inactive) |
| COC(=O)c1c(-c2cc(C)ccc2C)csc1NC(=O)[C@@H]1CC=CC[C@@H]1C(=O)O | 3.33% (inactive) |
| CCc1ccc(NC(=O)[C@H]2CC=CC[C@H]2C(=O)O)cc1 | 0% (inactive) |
| COC(=O)c1c(-c2ccc(C)cc2)csc1NC(=O)[C@H]1CC=CC[C@H]1C(=O)O | 0% (inactive) |
| CCc1cc2ccccc2nc1SCC(=O)Nc1cc(OC)c(OC)cc1C(=O)O | 2.78% (inactive) |
| CCOC(=O)c1c(NC(=O)[C@@H]2C3CCC(O3)[C@@H]2C(=O)O)sc(C)c1-c1ccc(C)cc1 (stereo partly specified) | 0% (inactive) |
| COc1cc(NC(=O)CSc2nnc3c(C)cc4cc(C)cc(C)c4n23)c(C(=O)O)cc1OC | 7.56% (inactive) |
| CCOC(=O)c1c(NC(=O)[C@@H]2C3C=CC(C3)[C@@H]2C(=O)O)sc2c1CCC(CC)C2 (stereo partly specified) | 5% (inactive) |
| N#Cc1c(NC(=O)[C@@H]2C3C=CC(C3)[C@@H]2C(=O)O)sc2c1CCCCC2 (stereo partly specified) | 0% (inactive) |
| COc1ccc(NC(=O)CSC2=NC(=O)CC(C)=N2)cc1 | 0% (inactive) |
| CC1=C(C)C[C@@H](C(=O)O)[C@@H](C(=O)Nc2cccc([N+](=O)[O-])c2)C1 | 11.2% (inactive) |
| CCc1ccc(Nc2nnc(SC3CCOC3=O)s2)cc1 (stereo unspecified) | 0% (inactive) |
| COc1ccc(-c2cc(=O)[nH][nH]2)cc1OC | 3.83% (inactive) |
| CCOc1cccc(-c2cc(=O)[nH][nH]2)c1 | 2.83% (inactive) |
| CCN(CC)c1ccc(NC(=O)CSc2nc(C)cc(=O)[nH]2)cc1 | 3.5% (inactive) |

| SMILES | inhibition |
| --- | --- |
| Cc1ccc(-c2c(C)sc(NC(=O)[C@@H]3C4CCC(O4)[C@@H]3C(=O)O)c2C(=O)OC(C)C)cc1 (stereo partly specified) | 6.33% (inactive) |
| CC1=Nc2ccc(C)cc2/C1=C/c1c(N)n2c(S(=O)(=O)C(C)C)nsc2nc1=O | 19.2% (inactive) |
| COc1ccc(NC(=O)CSc2nc(O)cc(=O)n2C)cc1 | 3.67% (inactive) |
| COc1cc(NC(=O)CSc2nc3cc(C)ccc3cc2C)c(C(=O)O)cc1OC | 5.17% (inactive) |
| CCOc1ccc(NC(=O)Nc2cccs2)cc1 | 0% (inactive) |
| Cc1ccc(-c2cccc(NC(=O)[C@@H]3C4C=CC(C4)[C@@H]3C(=O)O)c2)o1 (stereo partly specified) | 8.83% (inactive) |
| O=c1cc(-c2ccc(Cl)c(Cl)c2)[nH][nH]1 | 2.67% (inactive) |
| COC(=O)c1c(NC(=O)[C@H]2CCCC[C@H]2C(=O)O)sc2c1CCCCC2 | 3.33% (inactive) |
| Cc1ccc(Nc2nnc(SCc3cc(=O)n4ccsc4n3)s2)c(C)c1 | 18.4% (inactive) |
| Cc1ccc(-n2c(C)cc(C(=O)COC(=O)c3ccc[nH]c3=O)c2C)cc1C | 3.17% (inactive) |
| S=c1nc(-c2cccc(Cl)c2)[nH][nH]1 | 0% (inactive) |
| COc1cc(NC(=O)CSc2nc3c(C)ccc(C)c3cc2C)c(C(=O)O)cc1OC | 5% (inactive) |
| CCc1cc2ccc(C)cc2nc1SCC(=O)Nc1cc(OC)c(OC)cc1C(=O)O | 6.44% (inactive) |
| O=C(Nc1ccc(Cl)cc1)Nc1cccc(C(=O)O)c1 | 0% (inactive) |
| O=C(Nc1cc(Cl)ccc1Cl)[C@H]1CC=CC[C@H]1C(=O)O | 1.33% (inactive) |
| CC(=O)NS(=O)(=O)c1ccc(N=c2ssc3c2-c2ccc(C)cc2NC3(C)C)cc1 | 4.5% (inactive) |
| CCc1cc2cc3c(cc2nc1SCC(=O)Nc1cc(OC)c(OC)cc1C(=O)O)OCO3 | 0% (inactive) |
| O=C(CSc1nccc(=O)[nH]1)Nc1ccc(Br)c(Cl)c1 | 8.67% (inactive) |
| N#Cc1c(-c2ccccc2)nc(SCC(=O)N2c3ccccc3Sc3ccccc32)[nH]c1=O | 1% (inactive) |
| CN1C(=O)/C(=C/c2ccc(-c3ccccc3[N+](=O)[O-])o2)SC1=Nc1ccc(Cl)c(C(=O)O)c1 | 0% (inactive) |
| CCc1nnc(NC(=O)CSc2nnc(-c3ccc(NS(=O)(=O)c4ccccc4)cc3)o2)s1 | 2.33% (inactive) |
| CCOC(=O)c1c(-c2cccc(C)c2)csc1NC(=O)[C@H]1CC=CC[C@H]1C(=O)O | 1.83% (inactive) |

| SMILES | inhibition |
| --- | --- |
| Cc1cc(C(=O)COC(=O)c2ccc[nH]c2=O)c(C)n1-c1ccc(F)cc1 | 0% (inactive) |
| CCCCOc1ccc(CC(=O)NO)cc1 | 81.2% |
| CCn1c2ccccc2c2cc(NC(=O)CSc3nccc(=O)[nH]3)ccc21 | 2.67% (inactive) |
| CCc1cc2cc(OC)ccc2nc1SCC(=O)Nc1cc(OC)c(OC)cc1C(=O)O | 2.33% (inactive) |
| COC(=O)c1c(NC(=O)[C@H]2CC=CC[C@H]2C(=O)O)sc(C)c1C | 1.33% (inactive) |
| O=C(O)CCCCCNC(=O)Nc1ccc2c(c1)OCCO2 | 6.33% (inactive) |
| Cc1ccc(Nc2nnc(SC3CCOC3=O)s2)cc1 (stereo unspecified) | 4% (inactive) |
| COC(=O)c1c(-c2ccco2)csc1NC(=O)[C@H]1CC=CC[C@H]1C(=O)O | 0% (inactive) |
| COc1ccc2nc(SCC(=O)Nc3cc(OC)c(OC)cc3C(=O)O)c(C)cc2c1 | 1.44% (inactive) |
| Cc1noc(NS(=O)(=O)c2ccc(NC(=O)CSc3nnc4c(n3)[nH]c3ccccc34)cc2)c1C | 1.67% (inactive) |
| Cc1ccc(-n2c(C)cc(C(=O)COC(=O)c3ccc[nH]c3=O)c2C)cc1 | 20% (inactive) |
| O=C(CSc1nnc(Nc2ccccc2)s1)NN1C(=O)NC2(CCCCC2)C1=O | 12.9% (inactive) |
| CCCCc1c(O)nc(SCC(=O)Nc2ccc3c(c2)CCC3)[nH]c1=O | 7.67% (inactive) |
| COc1cc(NC(=O)CSc2nc3ccccc3cc2C)c(C(=O)O)cc1OC | 5.89% (inactive) |
| CCOC(=O)c1c(-c2ccc(C)cc2)csc1NC(=O)[C@H]1CC=CC[C@H]1C(=O)O | 10.7% (inactive) |
| Cc1ccc(NC(=O)CSc2nnc(C)c(=O)[nH]2)cc1C | 15.8% (inactive) |
| COc1ccc(-c2cc(=O)[nH][nH]2)cc1 | 0% (inactive) |
| O=c1cc(-c2ccc(F)cc2)[nH][nH]1 | 5.67% (inactive) |
| Cc1cc(C(=O)COC(=O)c2ccc[nH]c2=O)c(C)n1-c1ccccc1 | 6.67% (inactive) |
| COC(=O)c1cccc(NC(=O)CSc2nc(C)cc(=O)[nH]2)c1 | 9.78% (inactive) |
| C=CCn1c(SCC(=O)Nc2cccc3ccccc23)nc(O)c(CC)c1=O | 8.22% (inactive) |
| COc1cc(NC(=O)CSc2ncnc3scc(-c4ccccc4)c23)c(C(=O)O)cc1OC | 6.83% (inactive) |
